# In ChEMBL document CHEMBL5584328, “Integrating computational and experimental chemical biology revealed variable anticancer activities of phosphodiesterase isoenzyme 5 inhibitors (PDE5i) in lung cancer” (RSC Med Chem, 2024):
# Calls of active or inactive are those of the source. The calls are words filed in the database; no cut-off is given here.
# How the values were obtained:
# A549 [1] = assay: Antiproliferative activity against human A549 cells measured after 24 hrs by MTT assay; assay type: functional, cell-based
# A549 [2] = assay: Antiproliferative activity against human A549 cells measured after 48 hrs by MTT assay; assay type: functional, cell-based
# A549 [3] = assay: Antiproliferative activity against human A549 cells measured after 72 hrs by MTT assay; assay type: functional, cell-based
# NCI-H1299 [4] = assay: Antiproliferative activity against human NCI-H1299 cells measured after 24 hrs by MTT assay; assay type: functional, cell-based
# NCI-H1299 [5] = assay: Antiproliferative activity against human NCI-H1299 cells measured after 48 hrs by MTT assay; assay type: functional, cell-based
# NCI-H1299 [6] = assay: Antiproliferative activity against human NCI-H1299 cells measured after 72 hrs by MTT assay; assay type: functional, cell-based
# NCI-H661 [7] = assay: Antiproliferative activity against human NCI-H661 cells measured after 24 hrs by MTT assay; assay type: functional, cell-based
# NCI-H661 [8] = assay: Antiproliferative activity against human NCI-H661 cells measured after 48 hrs by MTT assay; assay type: functional, cell-based
# NCI-H661 [9] = assay: Antiproliferative activity against human NCI-H661 cells measured after 72 hrs by MTT assay; assay type: functional, cell-based
# A549 [10] = assay: Antiproliferative activity against human A549 cells by MTT assay; assay type: functional, cell-based; conditions: time 24-72 hrs, TDE = time-dependent effect
# NCI-H1299 [11] = assay: Antiproliferative activity against human NCI-H1299 cells by MTT assay; assay type: functional, cell-based; conditions: time 24-72 hrs, TDE = time-dependent effect
# NCI-H661 [12] = assay: Antiproliferative activity against human NCI-H661 cells by MTT assay; assay type: functional, cell-based; conditions: time 24-72 hrs, TDE = time-dependent effect
# A549 [13] = assay: Potentiation of cisplatin-induced cytotoxicity against human A549 cells assessed as combination index at 1:5 ratio of cisplatin to compound measured after 48 hrs by MTT assay; assay type: functional
# NCI-H1299 [14] = assay: Potentiation of cisplatin-induced cytotoxicity against human NCI-H1299 cells assessed as combination index at 1:4 ratio of cisplatin to compound measured after 48 hrs by MTT assay; assay type: functional
# NCI-H661 [15] = assay: Potentiation of cisplatin-induced cytotoxicity against human NCI-H661 cells assessed as combination index at 1:4 ratio of cisplatin to compound measured after 48 hrs by MTT assay; assay type: functional
# A549 [16] = assay: Potentiation of cisplatin-induced cytotoxicity against human A549 cells assessed as fold reduction in cisplatin IC50 at 1:5 ratio of cisplatin to compound measured after 48 hrs by MTT assay relative to cisplatin alone; assay type: functional
# NCI-H1299 [17] = assay: Potentiation of cisplatin-induced cytotoxicity against human NCI-H1299 cells assessed as fold reduction in cisplatin IC50 at 1:4 ratio of cisplatin to compound measured after 48 hrs by MTT assay relative to cisplatin alone; assay type: functional
# NCI-H661 [18] = assay: Potentiation of cisplatin-induced cytotoxicity against human NCI-H661 cells assessed as fold reduction in cisplatin IC50 at 1:4 ratio of cisplatin to compound measured after 48 hrs by MTT assay relative to cisplatin alone; assay type: functional
# A549 [19] = assay: Potentiation of raloxifene-induced cytotoxicity against human A549 cells assessed as combination index at 1:3 ratio of raloxifene to compound measured after 48 hrs by MTT assay; assay type: functional
# NCI-H1299 [20] = assay: Potentiation of raloxifene-induced cytotoxicity against human NCI-H1299 cells assessed as combination index at 1:2 ratio of raloxifene to compound measured after 48 hrs by MTT assay; assay type: functional
# NCI-H661 [21] = assay: Potentiation of raloxifene-induced cytotoxicity against human NCI-H661 cells assessed as combination index at 1:2 ratio of raloxifene to compound measured after 48 hrs by MTT assay; assay type: functional
# A549 [22] = assay: Potentiation of raloxifene-induced cytotoxicity against human A549 cells assessed as fold reduction in raloxifene IC50 at 1:3 ratio of raloxifene to compound measured after 48 hrs by MTT assay relative to raloxifene alone; assay type: functional
# NCI-H1299 [23] = assay: Potentiation of raloxifene-induced cytotoxicity against human NCI-H1299 cells assessed as fold reduction in raloxifene IC50 at 1:2 ratio of raloxifene to compound measured after 48 hrs by MTT assay relative to raloxifene alone; assay type: functional
# NCI-H661 [24] = assay: Potentiation of raloxifene-induced cytotoxicity against human NCI-H661 cells assessed as fold reduction in raloxifene IC50 at 1:2 ratio of raloxifene to compound measured after 48 hrs by MTT assay relative to raloxifene alone; assay type: functional
# NCI-H1299 [25] = assay: Antimigratory activity against human NCI-H1299 cells assessed as reduction in wound closure measured after 24 hrs by wound healing assay; assay type: functional, cell-based
# A549 [26] = assay: Inhibition of colony formation in human A549 cells assessed as reduction in number of colonies at 64 to 128 uM measured after 48 hrs by colony formation assay; assay type: functional, cell-based; conditions: dose 64-128 µM
# A549 [27] = assay: Inhibition of colony formation in human A549 cells assessed as reduction in size of colonies at 64 to 128 uM measured after 48 hrs by colony formation assay; assay type: functional, cell-based; conditions: dose 64-128 µM
# A549 [28] = assay: Induction of apoptosis in human A549 cells assessed as increase in apoptotic cells at 256 uM measured after 48 hrs by Annexin V-FITC/PI staining based flow cytometry relative to control; assay type: functional
# A549 [29] = assay: Cell cycle arrest in human A549 cells assessed as increase in cell population at G2 phase at 64 uM measured after 48 hrs by propidium iodide staining based flow cytometry; assay type: functional
# A549 [30] = assay: Reduction in PDE5 gene expression in human A549 cells at 0.1 IC50 measured after 48 hrs by qRT-PCR analysis; assay type: functional, cell-based
# A549 [31] = assay: Reduction in Bcl-2 gene expression in human A549 cells at 0.1 IC50 measured after 48 hrs by qRT-PCR analysis; assay type: functional, cell-based
# A549 [32] = assay: Reduction in PDE5 protein expression in human A549 cells at 0.25 to 0.5 IC50 measured after 48 hrs by Western blot analysis; assay type: functional, cell-based
smiles,measurement,setting,value
CCCOc1ccc(S(=O)(=O)NCCC2CCCN2C)cc1-c1nc2c(CCC)nn(C)c2c(=O)[nH]1 (stereo unspecified) [UDENAFIL],Activity,A549 [1],Dose-Dependent Effect
same,IC50,"A549 [1]; A549, 24 h",150 µM
same,Activity,A549 [2],Dose-Dependent Effect
same,IC50,"A549 [2]; A549, 48 h",128 µM
same,Activity,A549 [3],Dose-Dependent Effect
same,IC50,"A549 [3]; A549, 72 h",82.8 µM
same,Activity,NCI-H1299 [4],Dose-Dependent Effect
same,IC50,"NCI-H1299 [4]; NCI-H1299, 24 h",76.1 µM
same,Activity,NCI-H1299 [5],Dose-Dependent Effect
same,IC50,"NCI-H1299 [5]; NCI-H1299, 48 h",86.3 µM
same,Activity,NCI-H1299 [6],Dose-Dependent Effect
same,IC50,"NCI-H1299 [6]; NCI-H1299, 72 h",70.5 µM
same,Activity,NCI-H661 [7],Dose-Dependent Effect
same,IC50,"NCI-H661 [7]; NCI-H661, 24 h",177 µM
same,Activity,NCI-H661 [8],Dose-Dependent Effect
same,IC50,"NCI-H661 [8]; NCI-H661, 48 h",80.4 µM
same,Activity,NCI-H661 [9],Dose-Dependent Effect
same,IC50,"NCI-H661 [9]; NCI-H661, 72 h",98.8 µM
same,Activity,A549 [10],Tde
same,Activity,NCI-H1299 [11],Tde
same,Activity,NCI-H661 [12],Tde
same,CI,A549 [13],0.95
same,CI,NCI-H1299 [14],0.82
same,CI,NCI-H661 [15],0.83
same,fold change (FC),A549 [16],1.7
same,fold change (FC),NCI-H1299 [17],2.4
same,fold change (FC),NCI-H661 [18],2.1
same,CI,A549 [19],0.98
same,CI,NCI-H1299 [20],0.88
same,CI,NCI-H661 [21],0.8
same,fold change (FC),A549 [22],1.6
same,fold change (FC),NCI-H1299 [23],2.4
same,fold change (FC),NCI-H661 [24],2.3
same,Activity,NCI-H1299 [25],Dose-Dependent Effect
same,inhibition,A549 [26],Active
same,inhibition,A549 [27],Active
same,Activity,A549 [28],55.9%
same,Activity,A549 [29],Active
same,Activity,A549 [30],Active
same,Activity,A549 [31],Active
same,Activity,A549 [32],Dose-Dependent Effect
